According to patent US20100143241A1, “Method and apparatus for delivery of agents across the blood brain barrier” (priority 2008, published 2010):

Experiments:
mouse brain = experiment: T1 estimation by spin echo MRI in mice given Gd-DTPA with or without BOMUS; type: in vivo
Protocol: (§1) To enhance the brain with MR contrast, Gd-DTPA (Magnevist, Bayer HealthCare Pharmaceuticals, Wayne, N.J.) was administered by intraperitoneal (IP) injection 10 minutes prior to BOMUS (FIG. 14b). […] The Gd-DTPA dose was 3.2, 6.4, or 9.5 mmol/kg, as noted later. After BOMUS, high-throughput MR images were acquired. Because Gd-DTPA is normally excluded by the BBB, opening of the BBB was indicated by contrast-enhancement on T1-weighted MRI.
T1 measurements were performed by acquiring a series of 2D spin echo images with varying TRs: TR=200, 400, 800, 1600, 3200, 6400, or 12800 ms; TE=7 ms; BW=31.25; slice thickness=1 mm; FOV=20×20 mm; matrix=128×128. T1 over a region of interest (ROI) was estimated using a three-parameter non-linear fit of the data to the following equation: I=m(1−[…])+a, where I is the mean ROI intensity and TR is the repetition time. The three terms that were fit were m, a multiplicative constant; a, an additive constant; and T1.
To measure the change in relaxivity due to the Gd-DTPA, T1 was estimated in ROIs selected from the cortex, basal ganglia and muscle (FIG. 21). In the control animal receiving neither Gd-DTPA nor BOMUS, T1 values were long in the cortex (2.08 s), basal ganglia (1.97 s), and muscle (2.01 s). In the animal given only Gd-DTPA, the muscle T1 shortened dramatically (0.71 s); but T1 was only shortened modestly in the cortex (1.53 s) and basal ganglia (1.56 s) because the intact BBB excluded the Gd-DTPA. However, in the BOMUS-treated animal, Gd-DTPA not only shortened T1 in the muscle (0.80 s), but Gd-DTPA also crossed the BBB and dramatically shortened T1 in the cortex (0.50 s) and basal ganglia (0.50 s).

blood-brain barrier = experiment: T1-weighted MRI contrast enhancement of the mouse brain after BBB opening with microbubbles and unfocused ultrasound; type: in vivo; conditions: for enhancement in CSF and brain parenchyma: Gd-DTPA 6.4 mmol/kg IP
Description: Magnetic resonance images were acquired of a live mouse using a 7.0 T magnetic resonance system developed for magnetic resonance microscopy. […] IV injection of gadopentetate dimeglumine a standard magnetic resonance contrast agent results in enhancement of the muscles (FIG. 2b) but the brain remains dark. […] However, application of the ultrasound energy with the combination of Definity and gadopentetate dimeglumine opens the blood-brain barrier allowing the gadopentetate dimeglumine to actively stain the brain. Note in FIG. 2d the signal from the actively stained brain is nearly 5× (i.e., 5 fold or 5 times) stronger than it is in the unstained brain in FIG. 2a.
To open the BBB, 30 microliters of perflutren lipid microspheres (activated Definity) were injected through a tail vein catheter and simultaneously the ultrasound pulse sequence was initiated. The ultrasound was applied for 3 minutes.
as §1
For MRI, a 35 mm diameter quadrature transmit/receive volume coil (m2m Imaging Corp., Cleveland, Ohio) was used. The MR system was a 7 T horizontal bore magnet driven by a GE EXCITE console (General Electric Healthcare, Milwaukee, Wis.). MR images were acquired using either a high-throughput or high-resolution protocol. The high-throughput scan (3.2 minutes) used a 3D spoiled gradient recalled (SPGR) sequence with the following parameters: repetition time (TR)=25 ms; echo time (TE)=2 ms; flip angle (FA)=30 degrees; field of view (FOV)=20×20×12 mm; matrix=128×128×60; number of averages (NEX)=1. Data were acquired at a resolution of 156×156×200 micrometers.
High-resolution images were acquired with a similar 51 minute SPGR protocol: TR=25 ms; TE=3-4 ms; FA=15-22 degrees; FOV=20×20×8 mm; matrix=384×384×80; NEX=4. Data were acquired at a resolution of 52×52×100 micrometers.
To determine if the combination of unfocused ultrasound and microbubbles could be used to globally open the BBB, this treatment was compared to a variety of control scenarios (FIG. 16). […] However, co-administration of ultrasound and microbubbles globally opens the BBB, allowing the Gd-DTPA to enhance the brain. Animals received Gd-DTPA 6.4 mmol/kg IP 10 minutes prior to treatment, and T1-weighted images (high-throughput protocol) were acquired 20 minutes after treatment (FIG. 14b).

[1] = in vivo; cited from earlier work
[2] = BOMUS-treated animal given Gd-DTPA
[3] = animal given only Gd-DTPA, no BOMUS, intact BBB
[4] = Gd-DTPA along with BOMUS, high-resolution SPGR, left anterior cortex

In the case of `CNC[C@H](O)[C@@H](O)[C@H](O)[C@H](O)CO.CNC[C@H](O)[C@@H](O)[C@H](O)[C@H](O)CO.O=C([O-])CN(CCN(CC(=O)[O-])CC(=O)O)CCN(CC(=O)[O-])CC(=O)O.[Gd+3]` [Gd-DTPA, gadopentetate dimeglumine], the “T1 in basal ganglia” value (mouse brain; [2]) is reported as 0.50 s, the T1 in cortex (mouse brain; [2]) is reported as 0.50 s and the T1 in muscle (mouse brain; [2]) is reported as 0.80 s. For the same molecule, the “T1 of brain after active staining” value (mouse brain; Gd-DTPA with BOMUS, reduced from approximately 2000 ms) was roughly 500 ms, the T1 in muscle (mouse brain; animal given only Gd-DTPA, no BOMUS) was 0.71 s and the “T1 in basal ganglia” value (mouse brain; [3]) was 1.56 s. For the same molecule, the T1 in cortex (mouse brain; [3]) was 1.53 s, the “enhancement in CSF and brain parenchyma” value (blood-brain barrier; both ultrasound and microbubbles simultaneously) was “dramatic enhancement in the CSF and brain parenchyma” and the “enhancement in CSF and brain parenchyma” value (blood-brain barrier; no treatment, only ultrasound, or only microbubbles) was “no enhancement in the cerebrospinal fluid (CSF) or in the brain parenchyma”. The “increase in SNR over control mouse receiving no contrast agent” value (blood-brain barrier; [4]) was 90%, the “increase in SNR over mouse receiving only Gd-DTPA” value (blood-brain barrier; [4]) was 63% and the “time post-injection within which most of the enhancement occurs” value (blood-brain barrier; IP injection, preliminary studies) was 10 to 15 min. For the same molecule, the “wash-out of brain staining after BOMUS” value (blood-brain barrier; time-course of T1-weighted signal, up to 27 hours after BOMUS) was “washes out within a day”, the “signal of actively stained brain relative to unstained brain” value (blood-brain barrier; ultrasound with Definity and gadopentetate dimeglumine, 7.0 T, T1-weighted, FIG. 2) was roughly 5 × and the half-life [1] was 1.6 h.
